# In patent publication US20240269204A1, “COMPOSITION FOR ALLEVIATING SKIN DAMAGE CAUSED BY HYPOXIA CONTAINING SACCHAROMYCES CEREVISIAE STRAIN” (AMOREPACIFIC CORPORATION, priority 2023, published 2024):
# Columns and labels:
# MMP1 = MMP1 gene expression by qPCR in CoCl2-induced hypoxic keratinocytes; type: cell-based; conditions: keratinocytes (HEKn) treated with 200 μM CoCl2, 2.5 µM EGCG, cultured for 18 hours
# Description: (§1) First, keratinocytes (HEKn) (onza, Switzerland) were treated with 200 μM CoCl2 to induce a hypoxic environment. After that, the expression level of hypoxia-inducible factor 1-alpha (HIF1A) that was known to be expressed under hypoxia was compared with that before the treatment with CoCl2 (CTL in FIG. 1) to confirm that the expression level of HIF1A increased compared with that before the treatment with CoCl2 (FIG. 1), and thus skin (keratinocytes) damaged by hypoxia (hereinafter referred to as hypoxic keratinocytes) was prepared. Thereafter, in order to verify the effect of the strain isolated in Example 1 on the alleviation of skin damage due to hypoxia, the hypoxic keratinocytes were treated with the extract prepared in Example 2 at various concentrations and then cultured for 18 hours. […] Specifically, 10 μL of universal master mix (Taqman 2X Universal PCR mix, Applied Biosystems, Cat. No. 4304437) and 1 μL of TaqMan probe were added, 5 μL of CDNA was added to obtain a total volume of 20 μL, and PCR was performed using the Applied biosystem 7500 fast real time PCR system and the provided standard protocol. The expression of MMP1, an aging-related gene, and COX2, an inflammation-related gene, was examined through qPCR, and the results are illustrated in FIGS. 2 and 3. At this time, EGCG was used as Comparative Example. […]
# COX2 = COX2 gene expression by qPCR in CoCl2-induced hypoxic keratinocytes; type: cell-based; conditions: keratinocytes (HEKn) treated with 200 μM CoCl2, EGCG at 2.5 ppm, cultured for 18 hours
# Description: as §1
structure (smiles),measurement,setting,value
O=C(O[C@@H]1Cc2c(O)cc(O)cc2O[C@@H]1c1cc(O)c(O)c(O)c1)c1cc(O)c(O)c(O)c1 [EGCG],"inhibition of MMP1 overexpressed by hypoxia (expression level of MMP1, FIG. 2)",MMP1,cannot inhibit MMP1 overexpressed by hypoxia
same,"inhibition of COX2 overexpressed by hypoxia (expression level of COX2, FIG. 3)",COX2,cannot inhibit expression of COX2 overexpressed by hypoxia
